ChEMBL document CHEMBL4732022, “Generation of reactive oxygen species is the primary mode of action and cause of survivin suppression by sepantronium bromide (YM155)” (RSC Med Chem, 2021)
Active and inactive are the calls of the source. The calls are words filed in the database; no cut-off is given here.

Key:
[1] = system: MDA-MB-231; test: Downregulation of survivin protein expression in human MDA-MB-231 cells at 20 uM incubated for 72 hrs by Western blot analysis; type: functional, cell-based
[2] = biological target: Baculoviral IAP repeat-containing protein 5 (Homo sapiens) (UniProt O15392); test: Inhibition of survivin in human MDA-MB-231 cells assessed as reduction in survivin mRNA expression measured after 72 hrs by qPCR analysis; type: cell-based
Chain of Baculoviral IAP repeat-containing protein 5 (Homo sapiens) (O15392 whole entry): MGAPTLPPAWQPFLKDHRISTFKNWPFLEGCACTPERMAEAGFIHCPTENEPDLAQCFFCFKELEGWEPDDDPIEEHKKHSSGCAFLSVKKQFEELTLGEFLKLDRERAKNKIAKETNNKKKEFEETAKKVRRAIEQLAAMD

[3] = biological target: Baculoviral IAP repeat-containing protein 5 (Homo sapiens) (UniProt O15392); test: Inhibition of survivin in human BT-20 cells assessed as reduction in survivin mRNA expression measured after 72 hrs by qPCR analysis; type: cell-based
[4] = system: MDA-MB-231; test: Induction of ROS generation in human MDA-MB-231 cells assessed as increase in ROS level at 20 uM incubated for 12 hrs by […] based assay; type: functional, cell-based
[5] = biological target: Baculoviral IAP repeat-containing protein 5 (Homo sapiens) (UniProt O15392); test: Inhibition of survivin in human MDA-MB-453 cells assessed as reduction in survivin mRNA expression measured after 72 hrs by qPCR analysis; type: cell-based
[6] = system: MDA-MB-231; test: Induction of ROS generation in human MDA-MB-231 cells assessed as increase in ROS level at 1 mM incubated for 12 hrs by […] based assay; type: functional, cell-based
[7] = system: MCF-10A; test: Cytotoxicity against human MCF-10A cells at 200 uM; type: cell-based
[8] = system: MDA-MB-231; test: Downregulation of survivin protein expression in human MDA-MB-231 cells at 1 mM incubated for 72 hrs by Western blot analysis; type: functional, cell-based

SMILES: CC1=CC(=O)c2ccccc2C1=O
- Activity [1]: Active
- inhibition [2]: Active
- inhibition [3]: Active
- Activity [4]: Active
- inhibition [5]: Active

SMILES: CCCCS(=N)(=O)CCC(N)C(=O)O (stereo unspecified) [BUTHIONINE SULFOXIMINE]
- Activity [6]: Active
- Activity [7]: Non-Toxic
- inhibition [2]: Active
- inhibition [3]: Active
- Activity [8]: Active
- inhibition [5]: Active
